Data set [1] concerns the target CYP3A5 (Homo sapiens, UniProt P20815). In words: Reaction phenotyping with recombinant human CYP3A5. It counts as in vitro ADME. Further details: purchased Corning Life Sciences (Corning, MA); host or cells: Saccharomyces cerevisiae. The settings on record: CYP3A5 15 nM, 37 °C, 60 min; P4 main metabolite. Here is the method:
(§1) The CYP reaction system (200 μL) consisted of 0.1 M potassium phosphate buffer (pH 7.4), an NADPH-generating system (1 mM NADPH, 10 mM G-6-P, 1 unit/mL G-6-PD, 4 mM MgCl2), and liver microsomes or recombinant human microsomes (supersomes). Each of the in vitro enzymatic assays using liver microsomes was linear with respect to incubation time and amount of protein. After a pre-incubation at 37 °C for 3 min, the reactions were initiated by adding NADP^+. After incubating for 60 min, the reactions were quenched by adding 200 μL of ice-cold acetonitrile. Samples were centrifuged at 18,000 g for 15 min at 4 °C and 10 μL of supernatant was analyzed using an HPLC system. NADPH or CYP enzyme sources were not used in the control group to ensure that the metabolic reactions were CYP- and NADPH-dependent. All incubation assays were completed in triplicate. The data are presented as mean ± standard deviation (SD).
Thirteen cDNA-expressed human CYP isoforms (CYP1A1, CYP1A2, CYP2A6, CYP2B6, CYP2C8, CYP3A4, CYP2C19, CYP3A5, CYP1B1, CYP2C9, CYP2D6, CYP2E1 and CYP4F2) were used to identify the isoform(s) involved in the biotransformation of toddalolactone. Toddalolactone (10 μM) was incubated with each recombinant CYP (15 nM) for 60 min at 37 °C and metabolites were identified by HPLC.

Data set [2] in a line: Enzyme kinetics of toddalolactone metabolism in dog liver microsomes (oxidative metabolism). It counts as in vitro ADME, beagle dog. To be noted: beagle, dog, liver microsomes, pH 7.4; DLMs; P450-catalyzed oxidation; P4 formation; Vmax/Km. The method, then: as §1
(§2) The enzyme kinetics of toddalolactone in oxidative metabolism and glucuronidation were determined by incubating liver microsomes (0.2 mg/mL) or CYPs (15 nM) with different concentrations of toddalolactone (1–200 μM). […] The in vitro intrinsic clearance (CLint) was calculated based on the Vmax/Km ratio. Metabolites were quantified using the standard curve for toddalolactone because of the absence of metabolite standards. […]
(§3) The enzyme kinetics in oxidative metabolism and glucuronidation of toddalolactone were studied, and preliminary experiments were performed to ensure that metabolites were formed in the linear range of both reaction time and microsomal protein concentration. […] Based on the results of toddalolactone metabolism in different species, the kinetic parameter values in RLMs, DLMs, MLMs, HLMs, RAMs, MIMs, PLMs, CYP1A1 and CYP3A5 were calculated using P4, P4, P4, P4, P2, P2, P4, P4 and P4 data in oxidative metabolism, respectively. In the glucuronidation reaction, the kinetic parameter values in RLMs, MLMs, HLMs, RAMs and PLMs were calculated using P5, P6, P6, P6 and P5 data, respectively.
Background: Liver microsomes are vesicles of endoplasmic reticulum, rich in cytochrome P450 enzymes.

Data set [3] deals with DLMs. The data set is described as above. The data set is classed as in vitro ADME, beagle dog. The settings on record: P450-catalyzed oxidation, P4 formation. Here is the method: as §1, §2, §3
Data set [4] concerns the target T1, CYP1A1 (Homo sapiens, UniProt P04798).
T1 sequence (P04798 1-512): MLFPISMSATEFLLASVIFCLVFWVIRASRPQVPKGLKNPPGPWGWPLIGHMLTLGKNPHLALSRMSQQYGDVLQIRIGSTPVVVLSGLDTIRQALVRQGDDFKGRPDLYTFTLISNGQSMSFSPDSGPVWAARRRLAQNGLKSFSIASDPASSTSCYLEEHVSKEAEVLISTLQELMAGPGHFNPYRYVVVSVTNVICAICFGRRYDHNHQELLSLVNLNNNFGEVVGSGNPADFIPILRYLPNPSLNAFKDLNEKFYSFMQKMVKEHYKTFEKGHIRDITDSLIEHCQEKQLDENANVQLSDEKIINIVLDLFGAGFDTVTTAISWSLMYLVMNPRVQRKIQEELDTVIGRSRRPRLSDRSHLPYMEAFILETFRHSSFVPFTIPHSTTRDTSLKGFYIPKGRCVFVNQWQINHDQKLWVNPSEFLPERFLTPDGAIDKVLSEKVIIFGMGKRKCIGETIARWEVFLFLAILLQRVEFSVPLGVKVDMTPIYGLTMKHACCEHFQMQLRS
In words: Enzyme kinetics of toddalolactone metabolism by recombinant CYP1A1. To be noted: recombinant CYP1A1 (15 nM); P4 formation.

Data set [5] has as its system CYP1A1. The experiment in a line: Western blot of CYP1A1 protein expression in HepG2 cells. It counts as cell-based. To be noted: 50 μM, 24 h, vs control (0 μM), p < 0.05. The method, then: Hep G2 cells were seeded into 100 mm Petri dishes and treated with different concentrations of toddalolactone (0, 10 and 50 µmol/L) for 24 h. Total protein was extracted using RIPA lysis buffer containing proteinase inhibitor (BestBio, Shanghai, China). After the protein concentration was measured using a bicinchoninic acid (BCA) assay kit (Beyotime, Shanghai, China), samples were electrophoretically transferred to polyvinylidene difluoride (PVDF) membranes. After blocking with TTBS (0.5% Tween 20, 10 mM Tris-HCl, pH 7.5, 150 mM NaCl) containing 5% non-fat milk for 1 h at room temperature, the membrane was incubated with antibodies against β-Actin, CYP1A1, and CYP3A5 overnight at 4 °C. Then, membranes were washed with TBS (10 mM Tris-HCl, pH 7.5, 150 mM NaCl) containing 0.05% Tween 20 three times and further incubated with HRP-conjugated secondary antibodies against rabbit (for β-actin, CYP1A1 and CYP3A5) for 1 h at room temperature.
A general note: A western blot detects proteins with antibodies after separation by electrophoresis.

Chain of CYP3A5 (P20815 whole entry): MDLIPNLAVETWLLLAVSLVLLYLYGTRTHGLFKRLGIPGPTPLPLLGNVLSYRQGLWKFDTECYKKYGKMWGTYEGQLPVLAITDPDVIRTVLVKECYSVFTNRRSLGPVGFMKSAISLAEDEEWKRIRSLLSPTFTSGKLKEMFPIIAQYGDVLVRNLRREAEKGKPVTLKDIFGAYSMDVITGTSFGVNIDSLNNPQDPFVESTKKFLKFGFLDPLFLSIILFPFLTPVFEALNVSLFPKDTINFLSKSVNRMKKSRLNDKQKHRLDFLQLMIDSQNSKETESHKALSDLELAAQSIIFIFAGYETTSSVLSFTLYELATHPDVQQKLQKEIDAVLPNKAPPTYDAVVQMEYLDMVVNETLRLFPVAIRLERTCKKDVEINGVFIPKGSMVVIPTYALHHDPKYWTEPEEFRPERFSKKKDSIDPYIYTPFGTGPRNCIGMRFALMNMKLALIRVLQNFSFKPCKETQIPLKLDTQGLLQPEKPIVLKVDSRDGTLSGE

As for `COc1cc2oc(=O)ccc2c(OC)c1C[C@@H](O)C(C)(C)O` [toddalolactone], the “catalysis of toddalolactone metabolism by rhCYP isoform” value in data set [1] was “predominantly catalyzed”. In data set [2], this compound gave a microsomal CLint of 0.19 µL/min/mg. For the same compound, the K m in data set [3] worked out at 148.93 ± 38.37 µM; in data set [4], 60.12 ± 6.67 µM. The V max in data set [3] (toddalolactone 1–200 μM) amounted to 29.76 ± 7.27 pmol/min/mg protein. Moreover, in data set [5], the “induction of CYP1A1 protein expression higher than that of the control” value is recorded as “approximately 50%”.

The values are drawn from publication PMC9367672, “In vitro differences in toddalolactone metabolism in various species and its effect on cytochrome P450 expression” (Pharmaceutical Biology, 2022).
